# Results: PubChem BioAssay (NCI)
#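 1) Cells in 96-well plates. 2) Compound, 48 h, 5 concentrations. 3) Linear interpolation between surrounding doses. 4) Unreached endpoint = highest concentration. TGI: concentration producing complete growth inhibition.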
# How the values were obtained:
# Test in all cases: NCI tumour cell line growth inhibition, 48 h
# [1] = tested on: HT29 colon
# [2] = tested on: NCI-H226 lung
# [3] = tested on: SN12C renal
# [4] = tested on: MOLT-4 leukemia
# [5] = tested on: M14 melanoma
# [6] = tested on: SF-268 CNS
# [7] = tested on: CCRF-CEM leukemia
# [8] = tested on: ACHN renal
# [9] = tested on: HL-60(TB) leukemia
# [10] = tested on: HOP-18 NSCLC
# [11] = tested on: MALME-3M melanoma
# [12] = tested on: K-562 leukemia
# [13] = tested on: 786-0 renal
# [14] = tested on: A498 renal
# [15] = tested on: NCI-H522 lung
# [16] = tested on: DMS 114 small cell lung
# [17] = tested on: UO-31 renal
# [18] = tested on: HCT-15 colon
# [19] = tested on: EKVX NSCLC
# [20] = tested on: SF-539 CNS
# [21] = tested on: HCT-116 colon
# [22] = tested on: M19-MEL melanoma
# [23] = tested on: SW-620 colon
# [24] = tested on: RXF 393 renal
# [25] = tested on: SNB-78 CNS
# [26] = tested on: RPMI-8226 leukemia
# [27] = tested on: NCI-H23 lung
# [28] = tested on: UACC-62 melanoma
# [29] = tested on: SR leukemia
# [30] = tested on: DLD-1 colon
# [31] = tested on: OVCAR-8 ovarian
# [32] = tested on: UACC-257 melanoma
# [33] = tested on: A549 NSCLC
# [34] = tested on: SF-295 CNS
# [35] = tested on: U251 CNS
# [36] = tested on: SK-MEL-28 melanoma
# [37] = tested on: SNB-75 CNS
# [38] = tested on: SK-OV-3 ovarian
# [39] = tested on: HOP-62 NSCLC
# [40] = tested on: XF 498 CNS
# [41] = tested on: HCC-2998 colon
# [42] = tested on: OVCAR-4 ovarian
# [43] = tested on: COLO 205 colon
# [44] = tested on: SK-MEL-5 melanoma
# [45] = tested on: SNB-19 CNS
# [46] = tested on: KM20L2 colon
# [47] = tested on: HOP-92 NSCLC
# [48] = tested on: LXFL 529 NSCLC
# [49] = tested on: DMS 273 small cell lung
# [50] = tested on: IGROV1 ovarian
# [51] = tested on: SK-MEL-2 melanoma
# [52] = tested on: CAKI-1 renal
# [53] = tested on: TK-10 renal
# [54] = tested on: OVCAR-3 ovarian
# [55] = tested on: OVCAR-5 ovarian
# [56] = tested on: KM12 colon
# [57] = tested on: NCI-H460 lung
# [58] = tested on: LOX IMVI melanoma
smiles,measurement,setting,value
O=C1c2ccccc2N2OC3(N4CCCC4)CCCCC3C12c1ccccc1 (stereo not drawn),TGI,[1],52.6 µM
same,TGI,[2],> 100 µM
same,TGI,[3],30.5 µM
same,TGI,[4],> 100 µM
same,TGI,[5],34.6 µM
same,TGI,[6],33.7 µM
same,TGI,[7],47.5 µM
same,TGI,[8],43.8 µM
same,TGI,[9],53.7 µM
same,TGI,[10],> 100 µM
same,TGI,[11],38.7 µM
same,TGI,[12],59.8 µM
same,TGI,[13],31.6 µM
same,TGI,[14],> 100 µM
same,TGI,[15],29.1 µM
same,TGI,[16],28.4 µM
same,TGI,[17],> 100 µM
same,TGI,[18],> 100 µM
same,TGI,[19],> 100 µM
same,TGI,[20],80.5 µM
same,TGI,[21],27.6 µM
same,TGI,[22],22 µM
same,TGI,[23],31.5 µM
same,TGI,[24],39.4 µM
same,TGI,[25],33.9 µM
same,TGI,[26],> 100 µM
same,TGI,[27],86 µM
same,TGI,[28],40.1 µM
same,TGI,[29],> 100 µM
same,TGI,[30],46.3 µM
same,TGI,[31],32.9 µM
same,TGI,[32],45.6 µM
same,TGI,[33],52.1 µM
same,TGI,[34],32.7 µM
same,TGI,[35],> 100 µM
same,TGI,[36],76.2 µM
same,TGI,[37],> 100 µM
same,TGI,[38],> 100 µM
same,TGI,[39],> 100 µM
same,TGI,[40],41.1 µM
same,TGI,[41],> 100 µM
same,TGI,[42],28.1 µM
same,TGI,[43],31 µM
same,TGI,[44],32 µM
same,TGI,[45],> 100 µM
same,TGI,[46],> 100 µM
same,TGI,[47],29.7 µM
same,TGI,[48],27.7 µM
same,TGI,[49],30.9 µM
same,TGI,[50],> 100 µM
N[C@H](COCc1ccccc1)c1ccccc1,TGI,[1],> 93.9 µM
same,TGI,[2],77.5 µM
same,TGI,[3],> 81.6 µM
same,TGI,[4],45.7 µM
same,TGI,[5],66 µM
same,TGI,[6],> 100 µM
same,TGI,[51],49.8 µM
same,TGI,[7],56.6 µM
same,TGI,[8],> 91.4 µM
same,TGI,[9],30.8 µM
same,TGI,[10],> 89.8 µM
same,TGI,[11],> 93.6 µM
same,TGI,[12],87.2 µM
same,TGI,[13],> 80.9 µM
same,TGI,[14],88.2 µM
same,TGI,[52],61.2 µM
same,TGI,[15],39.1 µM
same,TGI,[53],> 100 µM
same,TGI,[16],56.3 µM
same,TGI,[17],87.4 µM
same,TGI,[18],> 79.4 µM
same,TGI,[19],> 100 µM
same,TGI,[20],75.1 µM
same,TGI,[54],> 76.2 µM
same,TGI,[21],61.8 µM
same,TGI,[22],64.3 µM
same,TGI,[23],> 72.3 µM
same,TGI,[24],> 72.6 µM
same,TGI,[25],> 100 µM
same,TGI,[26],45.2 µM
same,TGI,[55],87.2 µM
same,TGI,[27],57.5 µM
same,TGI,[28],> 100 µM
same,TGI,[29],56 µM
same,TGI,[30],> 100 µM
same,TGI,[31],> 100 µM
same,TGI,[32],> 81.1 µM
same,TGI,[33],> 100 µM
same,TGI,[34],82.5 µM
same,TGI,[35],> 100 µM
same,TGI,[36],> 100 µM
same,TGI,[37],56 µM
same,TGI,[38],> 100 µM
same,TGI,[39],> 74.5 µM
same,TGI,[40],48.3 µM
same,TGI,[56],> 100 µM
same,TGI,[41],> 91.7 µM
same,TGI,[42],> 100 µM
same,TGI,[43],29.2 µM
same,TGI,[44],44.8 µM
same,TGI,[57],61.9 µM
same,TGI,[45],> 89.7 µM
same,TGI,[58],> 92.2 µM
same,TGI,[46],75.8 µM
same,TGI,[47],62 µM
same,TGI,[48],51.5 µM
same,TGI,[49],50 µM
same,TGI,[50],> 100 µM
